Measurements: patent publication US20220296595A1, “CDK INHIBITORS” (QILU REGOR THERAPEUTICS INC., priority 2019, published 2022)
pIC50: −log10 of the molar value. Read-outs that look alike come from different tables or passages of the source.

Tests used:
CDK2/CyclinE1 = target: T1, CDK2/CyclinE1 (Homo sapiens, UniProt P24941); experiment: Assay for inhibition of CDK2/CyclinE1 (Caliper microfluidic kinase assay); assay type: biochemical; conditions: read-out: CDK2 IC50
T1 construct: purchased SignalChem C29-18G
Method in brief: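 IC50 came from 4-parameter fits of substrate-to-product conversion, separated on a Caliper chip after an EDTA stop. Reactions ran 3 hours at room temperature with 100 μM ATP, 5 μM fluorescent FL-18 peptide and 5 nM enzyme in 100 mM HEPES pH 7.5, 10 mM MgCl2.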

CDK6/CyclinD3 = target: T2, CDK6/CyclinD3 (Homo sapiens, UniProt Q00534); experiment: Assay for inhibition of CDK6/CyclinD3 (Caliper microfluidic kinase assay); assay type: biochemical
T2 construct: purchased Carna 04-107
T2 sequence (Q00534 whole entry): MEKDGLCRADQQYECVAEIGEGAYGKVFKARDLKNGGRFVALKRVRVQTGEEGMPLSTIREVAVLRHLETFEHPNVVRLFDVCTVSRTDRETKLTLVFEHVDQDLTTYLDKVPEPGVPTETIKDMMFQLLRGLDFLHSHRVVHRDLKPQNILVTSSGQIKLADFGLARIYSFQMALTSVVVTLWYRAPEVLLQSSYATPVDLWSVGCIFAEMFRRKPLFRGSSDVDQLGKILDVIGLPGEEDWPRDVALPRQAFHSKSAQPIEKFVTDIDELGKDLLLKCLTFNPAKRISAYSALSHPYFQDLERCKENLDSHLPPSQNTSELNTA
T2 sequence (P30281 whole entry partner): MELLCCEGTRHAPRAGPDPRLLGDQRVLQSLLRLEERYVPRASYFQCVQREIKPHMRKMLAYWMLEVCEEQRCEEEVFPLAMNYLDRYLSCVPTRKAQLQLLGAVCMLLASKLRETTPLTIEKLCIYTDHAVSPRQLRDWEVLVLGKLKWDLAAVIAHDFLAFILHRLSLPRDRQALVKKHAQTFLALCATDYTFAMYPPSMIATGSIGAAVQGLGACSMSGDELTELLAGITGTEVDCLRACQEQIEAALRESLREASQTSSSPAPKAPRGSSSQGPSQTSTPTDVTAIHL
Method in brief: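 IC50s came from four-parameter dose-response fits of microfluidic substrate/product separation data. Reactions held 2 nM CDK6/CyclinD3, 300 μM ATP and 1 μM 5-FAM peptide FL-34 in pH 7.5 HEPES/MgCl2 buffer, ran 3 hours at room temperature, then were quenched with EDTA.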

T47D breast cancer cells = experiment: Anti-proliferation assay in T47D cell (Cyquant, day 6); assay type: cell-based, human; conditions: anti-proliferation, T47D cells, read-out: T47D IC50
Method in brief: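 A ten-point, 3-fold compound series (10 μM down to 0.51 nM) was applied to overnight-settled cells in 10% FBS RPMI 1640, and DNA content was read by CyQuant fluorescence 6 days later. An untreated plate read before dosing served as baseline for subtraction before IC50 fitting.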

CDK4/CyclinD1 = target: T3, CDK4/CyclinD1 (Homo sapiens, UniProt P11802); experiment: Assay for inhibition of CDK4/CyclinD1 (Caliper microfluidic kinase assay); assay type: biochemical
T3 construct: purchased Thermofisher PR8064A
T3 sequence (P11802 whole entry): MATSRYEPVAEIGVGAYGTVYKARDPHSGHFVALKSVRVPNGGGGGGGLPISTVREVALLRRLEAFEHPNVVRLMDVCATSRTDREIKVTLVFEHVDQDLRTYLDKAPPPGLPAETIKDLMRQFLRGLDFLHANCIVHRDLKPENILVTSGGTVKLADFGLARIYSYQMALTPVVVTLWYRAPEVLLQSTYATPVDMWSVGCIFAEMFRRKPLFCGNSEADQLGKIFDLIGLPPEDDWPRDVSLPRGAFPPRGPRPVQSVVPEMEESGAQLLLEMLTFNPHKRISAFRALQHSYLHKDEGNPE
T3 sequence (P24385 whole entry partner): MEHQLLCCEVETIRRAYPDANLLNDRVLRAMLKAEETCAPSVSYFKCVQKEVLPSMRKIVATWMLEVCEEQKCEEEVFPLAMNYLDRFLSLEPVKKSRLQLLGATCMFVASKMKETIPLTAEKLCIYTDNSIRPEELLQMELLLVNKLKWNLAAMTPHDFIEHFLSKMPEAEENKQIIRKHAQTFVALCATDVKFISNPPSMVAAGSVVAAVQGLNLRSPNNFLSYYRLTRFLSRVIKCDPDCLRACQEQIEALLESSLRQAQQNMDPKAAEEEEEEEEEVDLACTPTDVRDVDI
Method in brief: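 IC50 was obtained by 4-parameter sigmoidal fitting after 1 nM CDK4/CyclinD1, 200 μM ATP and 1 μM FL-34 substrate reacted for 3 h at room temperature (pH 7.5 HEPES, 10 mM MgCl2). After EDTA quench, substrate and product were separated and detected on a Caliper microfluidic chip.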

[1] = system: phosphorylation of Retinoblastoma Protein (pRb Ser807/811 or Ser780) in T47D cells; experiment: Inhibition of phosphorylation of retinoblastoma protein (pRb) in T47D cell (ELISA); assay type: cell-based, human
Method: T47D breast cancer cells from American Type Culture Collection (ATCC, HTB-133) were plated at 40,000 cells/well in 96-well plates, and were incubated in RPMI 1640 medium (Gibco, 31800105) with 10% Fetal Bovine Serum (FBS, Biowest, FB-1058). Cells were then allowed to adhere overnight at 37° C., 5% CO2. The following day, compounds were titrated in a 3-fold dilution scheme, and the highest compound concentration tested was […]. After 24 hours incubation with compounds, cells were lysed in ice-cold lysis buffer containing phosphatase inhibitor cocktail and 1 mM PMSF. Cell lysates (50 μL/well) were then transferred to ELISA plates (pRb Ser807/811 ELISA kit, Cell Signaling, 13152 or pRb Ser780 ELISA kit, Cell Signaling, 13016)). Plates were incubated overnight at 4° C., with constant slow speed shaking. After incubation, plates were washed following manufacturer's recommendations, and then 100 μL reconstituted detection antibody was added to each well and incubated for 1 hour at 37° C. After incubation, plates were washed, and then 100 μL reconstituted HRP-linked secondary antibody was added to each well and incubated for 30 mins at 37° C. After incubation, plates were washed. Then, 100 μL TMB substrate was added to each well and incubated for 10 min at 37° C. or 30 min at 25° C. Finally, 100 μL of STOP solution was added to each well and mixed gently for a few seconds. Plates were read on the Envision plate reader (PerkinElmer, 2104-0010) using the 96-well […] mode. IC50 values were calculated using 4 parameter sigmoidal dose-response model of Xlfit5/GraphPad Prism 5 software.

[2] = Homo sapiens, T47D, read-out: Phospho T47D Ser807 IC50, pRb Ser807 phosphorylation, T47D cells

Row | Structure (SMILES) | pIC50 (CDK2/CyclinE1; CDK2/CyclinE1, 100 μM ATP) | pIC50 (CDK6/CyclinD3; CDK6/CyclinD3, 300 μM ATP) | pIC50 (T47D breast cancer cells; Homo sapiens, T47D) | pIC50 (CDK4/CyclinD1; CDK4/CyclinD1, 200 μM ATP) | pIC50 [1, 2] | pIC50 (T47D breast cancer cells) | pIC50 ([1]; read-out: Phospho T47D Ser807 IC50, pRb Ser807 phosphorylation, T47D cells) | pIC50 (CDK2/CyclinE1; CDK2/CyclinE1) | pIC50 (CDK6/CyclinD3; CDK6/CyclinD3) | pIC50 (CDK4/CyclinD1; CDK4/CyclinD1)
1 | CC(C)c1cnn2ccc(-c3nc(Nc4ccc(N5CCNCCC5=O)cn4)ncc3F)cc12 [compound 34] | 7.00 to 8.00 | 7.00 to 8.00 | > 7.00 | > 8.00 | > 7.00 | – | – | – | – | –
2 | COc1nc(-c2ccnc(Nc3ccc(N4CCN(CCF)CC4=O)cn3)n2)cc2c1ncn2C(C)C [compound 122] | 6.00 to 7.00 | 7.00 to 8.00 | > 7.00 | > 8.00 | > 7.00 | – | – | – | – | –
3 | Cc1nc2c(F)nc(-c3ccnc(Nc4ccc(N5CCNCC5=O)cn4)n3)cc2n1C(C)C [compound 276] | 7.00 to 8.00 | > 8.00 | > 7.00 | > 8.00 | > 7.00 | – | – | – | – | –
4 | COc1nc(-c2nc(Nc3ccc(N4CCC(N(C)C)CC4=O)cn3)ncc2F)cc2c1nc(C)n2C(C)C (single isomer, unassigned) [Example 62-2, 4-(dimethylamino)-1-[6-[[5-fluoro-4-(1-isopropyl-4-methoxy-2-methyl-imidazo[4,5-c]pyridin-6-yl)pyrimidin-2-yl]amino]-3-pyridyl]piperidin-2-one] | < 6.00 | 7.00 to 8.00 | – | > 8.00 | – | > 7.00 | > 7.00 | – | – | –
5 | CC(C)n1cnc2c(F)nc(-c3ccnc(Nc4ccc(N5CCNCC5=O)cn4)n3)cc21 [compound 273] | 7.00 to 8.00 | 7.00 to 8.00 | > 7.00 | > 8.00 | > 7.00 | – | – | – | – | –
6 | CC(C)c1cnn2ccc(-c3nc(Nc4ccc(N5CCNCC5=O)cn4)ncc3F)cc12 [Synthetic Example 29] | 7.00 to 8.00 | 7.00 to 8.00 | > 7.00 | > 8.00 | > 7.00 | – | – | – | – | –
7 | CC(C)n1cnc2c(F)nc(-c3nc(Nc4ccc(N5CCC(N(C)C)CC5=O)cn4)ncc3Cl)cc21 (centres unmarked) [compound 278] | 6.00 to 7.00 | 7.00 to 8.00 | > 7.00 | > 8.00 | > 7.00 | – | – | – | – | –
8 | COc1nc(-c2nc(Nc3ccc(N4CCNCCC4=O)cn3)ncc2F)cc2c1nc(C)n2C(C)C [compound 112] | < 6.00 | 7.00 to 8.00 | > 7.00 | > 8.00 | 6.30 to 7.00 | – | – | – | – | –
9 | CC(C)c1cnn2ccc(-c3ccnc(Nc4ccc(N5CCNCC5=O)cn4)n3)cc12 [compound 37] | > 8.00 | 7.00 to 8.00 | > 7.00 | > 8.00 | > 7.00 | – | – | – | – | –
10 | Cc1nc2c(F)nc(-c3ccnc(Nc4ccc(N5CCCC(N(C)C)C5=O)cn4)n3)cc2n1C(C)C (centres unmarked) [Synthetic Example 301, 3-(dimethylamino)-1-[6-[[4-(4-fluoro-1-isopropyl-2-methyl-imidazo[4,5-c]pyridin-6-yl)pyrimidin-2-yl]amino]-3-pyridyl]piperidin-2-one] | < 6.00 | > 8.00 | > 7.00 | > 8.00 | > 7.00 | – | – | – | – | –
11 | CC(C)c1cnn2ccc(-c3nc(Nc4ccc(N5CCN(C)CCC5=O)cn4)ncc3F)cc12 [compound 46] | 7.00 to 8.00 | 7.00 to 8.00 | > 7.00 | > 8.00 | > 7.00 | – | – | – | – | –
12 | COc1nc(-c2nc(Nc3ccc(N4CCCOCC4=O)cn3)ncc2F)cc2c1nc(C)n2C(C)C [compound 74] | – | – | 6.30 to 7.00 | – | 6.30 to 7.00 | – | – | < 6.00 | 7.00 to 8.00 | > 8.00
13 | CC(C)c1cnn2ccc(-c3ccnc(Nc4ccc(C(=O)N5CCC(NC6CC6)C5)cc4)n3)cc12 (centres unmarked) [compound 191] | > 8.00 | 7.00 to 8.00 | > 7.00 | > 8.00 | > 7.00 | – | – | – | – | –
14 | CC1CC(=O)N(c2ccc(Nc3ncc(F)c(-c4ccn5ncc(C(C)C)c5c4)n3)nc2)CCN1 (centres unmarked) [compound 193] | 7.00 to 8.00 | 7.00 to 8.00 | > 7.00 | > 8.00 | > 7.00 | – | – | – | – | –
15 | CC(C)c1cnn2ccc(-c3nc(Nc4ccc(N5CCC(N(C)C)CC5=O)cn4)ncc3F)cc12 (centres unmarked) [compound 3] | 7.00 to 8.00 | 7.00 to 8.00 | > 7.00 | > 8.00 | > 7.00 | – | – | – | – | –
16 | Cc1cnc(Nc2ccc(N3CCC(N(C)C)CC3=O)cn2)nc1-c1cc2c(ncn2C(C)C)c(F)n1 (centres unmarked) [compound 279] | 6.00 to 7.00 | 7.00 to 8.00 | > 7.00 | > 8.00 | > 7.00 | – | – | – | – | –
17 | CC(C)c1cnn2ccc(-c3ccnc(Nc4ccc(N5CCOCC5=O)cc4F)n3)cc12 [compound 164] | > 8.00 | 7.00 to 8.00 | > 7.00 | > 8.00 | > 7.00 | – | – | – | – | –
18 | CC1(N)CCN(c2ccc(Nc3nccc(-c4cc(F)c5c(c4)C(C)(C)CO5)n3)nc2)C(=O)C1 (centres unmarked) [compound 258] | 7.00 to 8.00 | 7.00 to 8.00 | > 7.00 | > 8.00 | > 7.00 | – | – | – | – | –
19 | COc1nc(-c2ccnc(Nc3ccc(N4CCC(N5CC(F)C5)CC4=O)cn3)n2)cc2c1ncn2C(C)C (centres unmarked) [compound 99] | – | – | > 7.00 | – | > 7.00 | – | – | 6.00 to 7.00 | 7.00 to 8.00 | > 8.00
20 | COc1nc(-c2ccnc(Nc3ccc(N4CCNCC4=O)c(F)c3)n2)cc2c1ncn2C(C)C [compound 116] | 7.00 to 8.00 | 7.00 to 8.00 | 6.30 to 7.00 | > 8.00 | > 7.00 | – | – | – | – | –
21 | CC(C)c1cnn2ccc(-c3ccnc(Nc4ccc(N5CCCC(N)C5=O)cc4)n3)cc12 (centres unmarked) [compound 214] | > 8.00 | > 8.00 | > 7.00 | > 8.00 | > 7.00 | – | – | – | – | –
22 | CC(C)c1cnn2ccc(-c3nc(Nc4ccc(N5CCOCC5=O)c(F)c4)ncc3F)cc12 [compound 26] | > 8.00 | 7.00 to 8.00 | 6.30 to 7.00 | > 8.00 | > 7.00 | – | – | – | – | –
23 | CNC1CCN(c2ccc(Nc3nccc(-c4ccn5ncc(C(C)C)c5c4)n3)nc2)C(=O)C1 (centres unmarked) [Synthetic Example 204, 1-[6-[[4-(3-isopropylpyrazolo[1,5-a]pyridin-5-yl)pyrimidin-2-yl]amino]-3-pyridyl]-4-(methylamino)piperidin-2-one] | > 8.00 | > 8.00 | > 7.00 | > 8.00 | > 7.00 | – | – | – | – | –
24 | COc1nc(-c2ccnc(Nc3ccc(N4CCOCC4=O)cn3)n2)cc2c1nc(C)n2C(C)C [compound 77] | – | – | 6.30 to 7.00 | – | > 7.00 | – | – | 6.00 to 7.00 | 7.00 to 8.00 | > 8.00
25 | CCN1CCC(=O)N(c2ccc(Nc3ncc(F)c(-c4ccn5ncc(C(C)C)c5c4)n3)nc2)CC1 [compound 47] | 7.00 to 8.00 | 7.00 to 8.00 | > 7.00 | > 8.00 | > 7.00 | – | – | – | – | –
26 | CC(C)n1cnc2c(F)nc(-c3ccnc(Nc4ccc(N5CCOCC5=O)cn4)n3)cc21 [Synthetic Example 61] | 7.00 to 8.00 | 7.00 to 8.00 | > 7.00 | > 8.00 | > 7.00 | – | – | – | – | –
27 | CC(C)c1cnn2ccc(-c3ccnc(Nc4ccc(N5CCC(N(C)C)CC5=O)cc4)n3)cc12 (centres unmarked) [compound 172] | > 8.00 | > 8.00 | > 7.00 | > 8.00 | > 7.00 | – | – | – | – | –
28 | CC(C)n1cnc2c(F)nc(-c3ccnc(Nc4ccc(N5CCCNC5=O)cc4)n3)cc21 [compound 282] | > 8.00 | > 8.00 | > 7.00 | > 8.00 | > 7.00 | – | – | – | – | –
